Measured values: ChEMBL document CHEMBL5291721, “A preclinical secondary pharmacology resource illuminates target-adverse drug reaction associations of marketed drugs” (Nat Commun, 2023)

Tests used:
[1] = target: Beta-1 adrenergic receptor (Homo sapiens, UniProt P08588); assay type: functional
[2] = target: D(3) dopamine receptor (Homo sapiens, UniProt P35462)
[3] = target: Kappa-type opioid receptor (Homo sapiens, UniProt P41145)
[4] = target: T1, Gamma-aminobutyric acid receptor subunit alpha-1 (Rattus norvegicus, UniProt P62813); assay type: functional
[5] = target: cGMP-inhibited 3',5'-cyclic phosphodiesterase 3A (Homo sapiens, UniProt Q14432); assay type: functional
[6] = target: Adenosine receptor A2a (Homo sapiens, UniProt P29274)
[7] = target: T1, Gamma-aminobutyric acid receptor subunit alpha-1
[8] = target: T2, 5-hydroxytryptamine receptor 3A (Homo sapiens, UniProt P46098); assay type: functional
T2 sequence (P46098 whole entry): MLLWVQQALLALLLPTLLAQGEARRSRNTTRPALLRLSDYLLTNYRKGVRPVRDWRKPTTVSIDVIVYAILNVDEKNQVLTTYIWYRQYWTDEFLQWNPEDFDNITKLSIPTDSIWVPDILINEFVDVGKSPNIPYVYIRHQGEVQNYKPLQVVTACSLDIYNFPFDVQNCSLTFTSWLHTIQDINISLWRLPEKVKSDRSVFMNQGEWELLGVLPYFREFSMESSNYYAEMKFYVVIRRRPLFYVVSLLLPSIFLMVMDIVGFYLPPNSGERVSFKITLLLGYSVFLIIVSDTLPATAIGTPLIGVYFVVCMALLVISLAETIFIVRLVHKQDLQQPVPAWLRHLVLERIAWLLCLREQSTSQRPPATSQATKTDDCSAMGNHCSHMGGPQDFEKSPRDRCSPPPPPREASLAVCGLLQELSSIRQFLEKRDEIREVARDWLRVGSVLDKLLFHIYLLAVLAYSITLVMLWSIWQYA

[9] = target: T3, Neuropeptide Y receptor type 1 (Homo sapiens, UniProt P25929)
T3 sequence (P25929 whole entry): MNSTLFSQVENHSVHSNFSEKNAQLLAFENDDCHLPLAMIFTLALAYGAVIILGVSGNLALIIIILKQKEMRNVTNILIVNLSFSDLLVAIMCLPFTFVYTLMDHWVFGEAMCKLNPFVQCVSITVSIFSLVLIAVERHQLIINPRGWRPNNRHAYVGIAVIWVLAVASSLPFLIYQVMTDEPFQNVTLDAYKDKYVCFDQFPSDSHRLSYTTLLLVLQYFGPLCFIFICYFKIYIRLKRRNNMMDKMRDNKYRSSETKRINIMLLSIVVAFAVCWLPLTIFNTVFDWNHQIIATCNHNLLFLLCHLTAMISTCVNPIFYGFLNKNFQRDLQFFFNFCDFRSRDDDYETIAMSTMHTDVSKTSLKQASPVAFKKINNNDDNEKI

[10] = target: Growth hormone secretagogue receptor type 1 (Homo sapiens, UniProt Q92847)
[11] = target: T4, Alpha-2C adrenergic receptor (Homo sapiens, UniProt P18825); assay type: functional
T4 sequence (P18825 whole entry): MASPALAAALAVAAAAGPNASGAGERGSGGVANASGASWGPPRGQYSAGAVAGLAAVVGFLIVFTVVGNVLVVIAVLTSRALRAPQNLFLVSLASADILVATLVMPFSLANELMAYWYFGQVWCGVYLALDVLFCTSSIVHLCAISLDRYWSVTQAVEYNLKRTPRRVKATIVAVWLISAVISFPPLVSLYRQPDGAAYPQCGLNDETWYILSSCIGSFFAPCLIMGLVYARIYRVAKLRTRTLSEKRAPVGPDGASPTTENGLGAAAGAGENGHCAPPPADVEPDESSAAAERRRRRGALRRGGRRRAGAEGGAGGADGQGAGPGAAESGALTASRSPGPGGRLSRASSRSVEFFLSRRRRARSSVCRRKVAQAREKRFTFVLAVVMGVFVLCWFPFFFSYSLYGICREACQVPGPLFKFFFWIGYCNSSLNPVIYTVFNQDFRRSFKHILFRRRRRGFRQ

[12] = target: Glutamate receptor ionotropic, NMDA 1 (Rattus norvegicus, UniProt P35439)
[13] = target: Melanocortin receptor 3 (Homo sapiens, UniProt P41968)
[14] = target: Sodium-dependent dopamine transporter (Homo sapiens, UniProt Q01959)
[15] = target: Motilin receptor (Homo sapiens, UniProt O43193)
[16] = target: T5, Thromboxane A2 receptor (Homo sapiens, UniProt P21731)
T5 sequence (P21731 whole entry): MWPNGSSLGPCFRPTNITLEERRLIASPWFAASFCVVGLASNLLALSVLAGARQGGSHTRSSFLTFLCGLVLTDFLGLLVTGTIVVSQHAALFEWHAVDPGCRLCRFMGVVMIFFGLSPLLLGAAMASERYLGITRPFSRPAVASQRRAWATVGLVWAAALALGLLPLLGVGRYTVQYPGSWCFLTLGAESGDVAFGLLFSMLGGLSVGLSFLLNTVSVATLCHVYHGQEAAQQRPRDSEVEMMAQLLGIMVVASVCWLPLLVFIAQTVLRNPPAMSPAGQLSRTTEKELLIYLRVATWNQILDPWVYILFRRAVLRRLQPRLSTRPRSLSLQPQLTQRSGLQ

[17] = target: 5-hydroxytryptamine receptor 2B (Homo sapiens, UniProt P41595); assay type: functional, cell-based
Further: assay procedure not described here.

Sequence of cGMP-inhibited 3',5'-cyclic phosphodiesterase 3A (Q14432 whole entry): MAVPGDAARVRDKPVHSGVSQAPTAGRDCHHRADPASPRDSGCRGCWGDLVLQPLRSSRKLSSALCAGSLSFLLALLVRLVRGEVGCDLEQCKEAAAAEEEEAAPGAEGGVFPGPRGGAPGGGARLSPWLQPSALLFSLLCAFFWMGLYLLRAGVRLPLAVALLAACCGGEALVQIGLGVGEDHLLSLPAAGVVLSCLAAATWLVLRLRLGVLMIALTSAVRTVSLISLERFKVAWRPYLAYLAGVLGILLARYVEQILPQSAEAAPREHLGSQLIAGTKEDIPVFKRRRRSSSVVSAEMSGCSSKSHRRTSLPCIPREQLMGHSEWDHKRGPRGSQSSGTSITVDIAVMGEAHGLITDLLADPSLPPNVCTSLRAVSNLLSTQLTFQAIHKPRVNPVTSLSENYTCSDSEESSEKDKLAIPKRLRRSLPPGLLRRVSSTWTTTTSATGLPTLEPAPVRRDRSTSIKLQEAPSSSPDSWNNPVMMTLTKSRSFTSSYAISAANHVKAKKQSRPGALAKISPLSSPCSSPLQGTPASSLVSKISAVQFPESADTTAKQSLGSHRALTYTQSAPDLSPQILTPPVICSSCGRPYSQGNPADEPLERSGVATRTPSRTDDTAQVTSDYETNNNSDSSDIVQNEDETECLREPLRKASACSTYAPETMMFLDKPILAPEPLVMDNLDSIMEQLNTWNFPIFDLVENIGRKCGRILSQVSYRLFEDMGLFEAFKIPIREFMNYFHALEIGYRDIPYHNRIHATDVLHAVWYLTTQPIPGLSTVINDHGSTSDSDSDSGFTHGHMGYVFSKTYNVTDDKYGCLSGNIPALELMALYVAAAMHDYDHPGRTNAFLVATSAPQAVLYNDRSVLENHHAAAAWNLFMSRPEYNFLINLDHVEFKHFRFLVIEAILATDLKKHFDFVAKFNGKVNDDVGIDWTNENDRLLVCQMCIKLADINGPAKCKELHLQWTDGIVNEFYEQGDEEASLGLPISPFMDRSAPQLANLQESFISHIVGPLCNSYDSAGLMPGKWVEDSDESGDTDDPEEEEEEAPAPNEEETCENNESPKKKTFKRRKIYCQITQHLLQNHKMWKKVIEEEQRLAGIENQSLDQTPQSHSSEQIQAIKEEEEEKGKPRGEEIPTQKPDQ
T1 sequence (P62813 whole entry): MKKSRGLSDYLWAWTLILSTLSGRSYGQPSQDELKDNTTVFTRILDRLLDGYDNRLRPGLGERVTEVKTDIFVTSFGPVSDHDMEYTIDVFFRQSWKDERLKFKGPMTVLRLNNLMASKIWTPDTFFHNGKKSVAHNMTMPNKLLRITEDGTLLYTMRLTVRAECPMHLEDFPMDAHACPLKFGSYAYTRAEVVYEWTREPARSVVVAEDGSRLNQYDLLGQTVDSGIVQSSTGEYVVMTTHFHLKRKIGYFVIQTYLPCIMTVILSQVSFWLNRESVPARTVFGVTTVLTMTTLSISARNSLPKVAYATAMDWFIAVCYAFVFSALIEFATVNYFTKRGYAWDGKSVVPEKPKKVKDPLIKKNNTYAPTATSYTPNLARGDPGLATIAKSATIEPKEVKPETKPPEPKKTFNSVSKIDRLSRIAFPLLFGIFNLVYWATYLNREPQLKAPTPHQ
Sequence of 5-hydroxytryptamine receptor 2B (P41595 whole entry): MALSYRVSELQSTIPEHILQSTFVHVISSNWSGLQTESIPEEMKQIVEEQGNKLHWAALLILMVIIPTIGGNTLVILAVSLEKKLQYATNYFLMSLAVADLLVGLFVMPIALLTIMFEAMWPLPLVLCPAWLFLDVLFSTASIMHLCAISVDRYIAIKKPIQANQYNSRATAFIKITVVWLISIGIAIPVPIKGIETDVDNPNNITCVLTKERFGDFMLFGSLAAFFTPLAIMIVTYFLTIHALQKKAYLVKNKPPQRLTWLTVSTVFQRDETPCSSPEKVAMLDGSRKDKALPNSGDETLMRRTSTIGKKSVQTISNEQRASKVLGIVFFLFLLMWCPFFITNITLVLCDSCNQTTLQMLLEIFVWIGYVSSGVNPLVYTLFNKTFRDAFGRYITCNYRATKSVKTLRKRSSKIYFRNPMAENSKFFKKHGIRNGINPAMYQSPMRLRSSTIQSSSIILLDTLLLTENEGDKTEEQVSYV
Sequence of D(3) dopamine receptor (P35462 whole entry): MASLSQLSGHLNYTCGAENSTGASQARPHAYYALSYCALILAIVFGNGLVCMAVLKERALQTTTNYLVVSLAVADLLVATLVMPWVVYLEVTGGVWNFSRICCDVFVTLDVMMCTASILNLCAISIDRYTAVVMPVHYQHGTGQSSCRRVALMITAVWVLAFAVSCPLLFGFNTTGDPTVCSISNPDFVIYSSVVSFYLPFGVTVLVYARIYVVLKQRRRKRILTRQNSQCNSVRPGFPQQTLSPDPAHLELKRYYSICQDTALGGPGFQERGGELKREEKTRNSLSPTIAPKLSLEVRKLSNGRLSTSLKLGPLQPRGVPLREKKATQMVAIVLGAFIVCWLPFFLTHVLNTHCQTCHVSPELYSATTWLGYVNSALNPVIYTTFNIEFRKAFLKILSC
Sequence of Motilin receptor (O43193 whole entry): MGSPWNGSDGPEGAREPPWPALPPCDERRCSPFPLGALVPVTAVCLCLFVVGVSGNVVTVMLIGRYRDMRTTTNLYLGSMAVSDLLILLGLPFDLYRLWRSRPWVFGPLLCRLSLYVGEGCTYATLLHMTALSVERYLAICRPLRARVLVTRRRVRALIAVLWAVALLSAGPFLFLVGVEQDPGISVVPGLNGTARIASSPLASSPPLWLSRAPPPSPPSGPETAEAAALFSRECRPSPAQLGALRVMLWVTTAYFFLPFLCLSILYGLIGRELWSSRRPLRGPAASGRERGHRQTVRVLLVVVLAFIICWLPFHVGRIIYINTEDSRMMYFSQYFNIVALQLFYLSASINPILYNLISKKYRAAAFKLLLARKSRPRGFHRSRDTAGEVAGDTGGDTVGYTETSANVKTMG
Sequence of Sodium-dependent dopamine transporter (Q01959 whole entry): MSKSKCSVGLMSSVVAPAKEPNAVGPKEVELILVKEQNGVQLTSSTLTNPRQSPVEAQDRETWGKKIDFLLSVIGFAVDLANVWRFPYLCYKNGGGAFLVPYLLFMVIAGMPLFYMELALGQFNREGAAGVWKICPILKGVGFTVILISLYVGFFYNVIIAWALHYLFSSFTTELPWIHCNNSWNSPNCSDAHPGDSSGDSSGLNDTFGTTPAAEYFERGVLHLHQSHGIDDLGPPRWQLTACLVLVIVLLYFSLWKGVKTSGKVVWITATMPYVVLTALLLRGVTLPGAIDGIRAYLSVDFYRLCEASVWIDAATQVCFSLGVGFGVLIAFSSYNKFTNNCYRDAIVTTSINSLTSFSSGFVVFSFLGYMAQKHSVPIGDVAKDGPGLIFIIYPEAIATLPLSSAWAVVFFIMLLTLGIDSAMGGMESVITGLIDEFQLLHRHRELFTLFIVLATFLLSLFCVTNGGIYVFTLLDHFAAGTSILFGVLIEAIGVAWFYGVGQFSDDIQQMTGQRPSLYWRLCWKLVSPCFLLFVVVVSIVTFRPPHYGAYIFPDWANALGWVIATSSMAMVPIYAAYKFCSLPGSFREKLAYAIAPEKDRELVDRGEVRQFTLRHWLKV
Sequence of Melanocortin receptor 3 (P41968 whole entry): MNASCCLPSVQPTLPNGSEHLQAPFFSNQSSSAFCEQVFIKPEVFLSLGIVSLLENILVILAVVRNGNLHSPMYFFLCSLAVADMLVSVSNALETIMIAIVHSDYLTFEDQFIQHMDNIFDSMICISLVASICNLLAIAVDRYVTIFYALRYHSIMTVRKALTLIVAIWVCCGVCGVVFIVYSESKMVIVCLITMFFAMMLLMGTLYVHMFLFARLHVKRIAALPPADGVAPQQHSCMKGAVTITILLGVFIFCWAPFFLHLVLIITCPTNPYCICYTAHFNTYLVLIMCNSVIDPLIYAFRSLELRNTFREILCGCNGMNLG
Sequence of Growth hormone secretagogue receptor type 1 (Q92847 whole entry): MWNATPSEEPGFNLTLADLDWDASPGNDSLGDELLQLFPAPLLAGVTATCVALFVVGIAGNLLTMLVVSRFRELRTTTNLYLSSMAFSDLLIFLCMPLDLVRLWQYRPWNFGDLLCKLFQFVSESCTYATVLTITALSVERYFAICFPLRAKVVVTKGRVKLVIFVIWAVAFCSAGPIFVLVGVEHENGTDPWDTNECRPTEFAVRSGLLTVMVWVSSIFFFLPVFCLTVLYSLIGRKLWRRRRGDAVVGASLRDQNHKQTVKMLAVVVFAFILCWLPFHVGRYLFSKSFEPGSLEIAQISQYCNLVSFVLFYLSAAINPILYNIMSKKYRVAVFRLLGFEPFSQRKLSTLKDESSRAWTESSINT
Sequence of Kappa-type opioid receptor (P41145 whole entry): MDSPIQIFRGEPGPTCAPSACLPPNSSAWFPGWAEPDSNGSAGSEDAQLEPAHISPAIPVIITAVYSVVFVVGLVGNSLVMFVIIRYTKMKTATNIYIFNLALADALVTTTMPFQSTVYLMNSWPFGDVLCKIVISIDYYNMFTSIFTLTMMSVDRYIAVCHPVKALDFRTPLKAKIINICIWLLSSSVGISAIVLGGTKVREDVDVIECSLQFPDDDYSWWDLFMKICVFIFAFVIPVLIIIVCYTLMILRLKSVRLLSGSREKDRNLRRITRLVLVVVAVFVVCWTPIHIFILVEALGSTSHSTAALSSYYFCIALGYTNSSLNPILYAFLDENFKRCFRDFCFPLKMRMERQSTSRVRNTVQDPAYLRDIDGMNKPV
Sequence of Adenosine receptor A2a (P29274 whole entry): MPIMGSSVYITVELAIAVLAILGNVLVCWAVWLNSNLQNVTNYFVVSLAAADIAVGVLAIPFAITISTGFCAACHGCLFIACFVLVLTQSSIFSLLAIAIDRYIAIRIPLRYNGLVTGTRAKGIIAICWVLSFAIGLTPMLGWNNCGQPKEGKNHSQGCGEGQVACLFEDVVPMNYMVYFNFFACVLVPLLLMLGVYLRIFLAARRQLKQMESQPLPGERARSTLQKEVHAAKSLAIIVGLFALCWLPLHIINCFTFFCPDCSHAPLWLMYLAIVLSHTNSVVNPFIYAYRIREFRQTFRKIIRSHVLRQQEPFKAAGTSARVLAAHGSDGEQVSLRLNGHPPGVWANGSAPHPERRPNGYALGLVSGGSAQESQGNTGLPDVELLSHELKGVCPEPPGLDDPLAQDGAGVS

Row | SMILES | AC50 [1] | AC50 [2] | AC50 [3] | AC50 [4] | AC50 [5] | AC50 [6] | AC50 [7] | AC50 [8] | AC50 [9] | AC50 [10] | AC50 [11] | AC50 [12] | AC50 [13] | AC50 [14] | AC50 [15] | AC50 [16] | AC50 [17]
1 | C[C@@H]1CCC[C@H](C)N1NC(=O)c1ccc(Cl)c(S(N)(=O)=O)c1 [CLOPAMIDE] | > 30 µM | > 30 µM | > 30 µM | > 30 µM | > 30 µM | > 30 µM | > 30 µM | > 30 µM | > 30 µM | > 30 µM | > 30 µM | > 30 µM | > 30 µM | > 30 µM | > 30 µM | > 30 µM | > 30 µM
2 | O=c1oc2ccccc2c(O)c1Cc1c(O)c2ccccc2oc1=O [DICUMAROL] | > 10 µM | > 30 µM | > 10 µM | > 10 µM | > 10 µM | > 10 µM | > 10 µM | > 30 µM | > 10 µM | > 10 µM | > 10 µM | > 10 µM | > 10 µM | > 10 µM | > 10 µM | > 10 µM | > 10 µM
3 | CCn1cc(C(=O)O)c(=O)c2cc(F)c(N3CCNCC3)nc21 [ENOXACIN] | > 10 µM | > 10 µM | > 10 µM | > 10 µM | > 30 µM | > 30 µM | > 10 µM | > 10 µM | > 30 µM | > 30 µM | > 10 µM | > 10 µM | > 30 µM | > 10 µM | > 10 µM | 6.06 µM | > 10 µM
4 | N=C(N)c1ccc2cc(OC(=O)c3ccc(N=C(N)N)cc3)ccc2c1 [NAFAMOSTAT] | > 30 µM | 4.6 µM | 17 µM | > 30 µM | > 30 µM | > 30 µM | 3.5 µM | 14 µM | 10 µM | 21 µM | 3.2 µM | 0.29 µM | > 30 µM | 2.8 µM | 27 µM | > 30 µM | > 30 µM
5 | O=C(O)c1cc(O)c2c3nc4ccccc4oc-3cc(=O)c2n1 [PIRENOXINE] | > 30 µM | 1.6 µM | > 30 µM | > 30 µM | > 30 µM | > 30 µM | > 30 µM | 2.6 µM | > 30 µM | > 30 µM | 2.7 µM | > 30 µM | > 30 µM | > 30 µM | > 30 µM | > 30 µM | > 30 µM
6 | COCCCOc1ccnc(C[S+]([O-])c2nc3ccccc3[nH]2)c1C (centres undefined) [RABEPRAZOLE] | > 10 µM | > 10 µM | > 10 µM | > 10 µM | > 30 µM | > 30 µM | > 10 µM | 6 µM | 20.5 µM | > 30 µM | > 10 µM | > 10 µM | > 30 µM | > 10 µM | > 10 µM | 11.4 µM | > 10 µM

Further lines, results first:

Row | AC50 [1] | AC50 [2] | AC50 [3] | AC50 [4] | AC50 [5] | AC50 [6] | AC50 [7] | AC50 [8] | AC50 [9] | AC50 [10] | AC50 [11] | AC50 [12] | AC50 [13] | AC50 [14] | AC50 [15] | AC50 [16] | AC50 [17] | SMILES
7 | > 30 µM | > 30 µM | > 30 µM | > 30 µM | > 30 µM | > 30 µM | > 30 µM | > 30 µM | > 30 µM | > 30 µM | > 30 µM | > 30 µM | > 30 µM | > 30 µM | > 30 µM | > 30 µM | > 30 µM | O=C(O)CSCC(=O)NC1CCSC1=O (centres undefined) [ERDOSTEINE]
8 | > 30 µM | > 30 µM | 1.5 µM | > 30 µM | > 30 µM | > 30 µM | > 30 µM | > 30 µM | > 30 µM | > 30 µM | > 30 µM | > 30 µM | > 30 µM | > 30 µM | > 30 µM | > 30 µM | > 30 µM | COc1cccc(N(C)C(=S)Oc2ccc3c(c2)CCCC3)n1 [LIRANAFTATE]
9 | > 10 µM | > 30 µM | > 10 µM | > 10 µM | > 30 µM | > 30 µM | > 10 µM | > 30 µM | > 10 µM | > 10 µM | > 30 µM | > 10 µM | > 10 µM | 20 µM | > 10 µM | > 10 µM | > 10 µM | C#C[C@]1(O)CC[C@H]2[C@@H]3CCc4cc(OC)ccc4[C@H]3CC[C@@]21C [MESTRANOL]
10 | > 30 µM | > 30 µM | > 30 µM | > 30 µM | > 30 µM | > 30 µM | > 30 µM | > 30 µM | > 30 µM | > 30 µM | > 30 µM | > 30 µM | > 30 µM | > 30 µM | > 30 µM | > 30 µM | > 30 µM | NS(=O)(=O)c1cc(C(=O)O)cc(N2CCCC2)c1Oc1ccccc1 [PIRETANIDE]
11 | 21 µM | > 30 µM | 12 µM | > 30 µM | > 30 µM | > 30 µM | > 30 µM | > 30 µM | > 30 µM | > 30 µM | > 30 µM | > 30 µM | > 30 µM | 13 µM | > 30 µM | 13 µM | > 30 µM | CC(C)=CCOc1ccc(/C=C/C(=O)c2ccc(OCC=C(C)C)cc2OCC(=O)O)cc1 [SOFALCONE]
12 | > 30 µM | > 30 µM | > 30 µM | > 30 µM | > 30 µM | > 30 µM | > 30 µM | > 30 µM | > 30 µM | > 30 µM | > 30 µM | > 30 µM | > 30 µM | > 30 µM | > 30 µM | > 30 µM | > 30 µM | CN(C)c1cc(NC(=O)CNC(C)(C)C)c(O)c2c1C[C@H]1C[C@H]3[C@H](N(C)C)C(O)=C(C(N)=O)C(=O)[C@@]3(O)C(O)=C1C2=O [TIGECYCLINE]
